Experimental data published in PubChem BioAssay (NCI).
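1) Cells in 96-well plates. 2) Compound, 48 h, 5 concentrations. 3) Linear interpolation between surrounding doses. 4) Unreached endpoint = highest concentration. GI50: concentration for 50% inhibition of growth. At the TGI there is no net growth.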

Columns and labels:
Experiment in all cases: NCI tumour cell line growth inhibition, 48 h
[1] = tested on: U251 CNS
[2] = tested on: DU-145 prostate
[3] = tested on: PC-3 prostate
[4] = tested on: MCF7 breast
[5] = tested on: TK-10 renal
[6] = tested on: HS 578T breast
[7] = tested on: T-47D breast
[8] = tested on: KM12 colon
[9] = tested on: RXF 393 renal
[10] = tested on: SK-OV-3 ovarian
[11] = tested on: NCI/ADR-RES ovarian
[12] = tested on: SN12C renal
[13] = tested on: A498 renal
[14] = tested on: K-562 leukemia
[15] = tested on: BT-549 breast
[16] = tested on: 786-0 renal
[17] = tested on: LXFL 529 NSCLC
[18] = tested on: SNB-78 CNS

Row | Compound | TGI [1] | TGI [2] | TGI [3] | TGI [4] | TGI [5] | TGI [6] | TGI [7] | TGI [8] | TGI [9] | TGI [10] | TGI [11] | TGI [12] | TGI [13] | TGI [14] | TGI [15] | TGI [16] | TGI [17] | TGI [18] | GI50 [17] | GI50 [18]
1 | CCN(CCO)C(=O)C1(c2ccccc2)CCCCC1 | > 10 µM | > 10 µM | > 10 µM | > 10 µM | > 10 µM | > 10 µM | > 10 µM | > 10 µM | > 10 µM | > 10 µM | > 10 µM | > 10 µM | > 10 µM | > 10 µM | – | – | – | – | – | –
2 | COc1ccc(CC2CCc3nc(N)nc(N)c3C2)cc1OC (stereo unspecified) | > 100 µM | – | > 100 µM | > 44.4 µM | > 100 µM | > 100 µM | > 82.6 µM | > 100 µM | 0.81 µM | > 100 µM | 16.3 µM | > 100 µM | > 100 µM | > 100 µM | 51.7 µM | – | – | – | – | –
3 | CCCCC(=O)c1ccc2ccccc2c1O | > 100 µM | > 100 µM | > 100 µM | > 100 µM | > 100 µM | > 100 µM | > 100 µM | > 100 µM | > 100 µM | > 100 µM | > 100 µM | – | > 100 µM | > 100 µM | > 100 µM | > 100 µM | – | – | – | –
4 | CC(CCC(=O)O)(c1ccc(O)cc1)c1ccc(O)cc1 | > 100 µM | > 100 µM | > 100 µM | – | > 100 µM | > 100 µM | > 100 µM | > 100 µM | > 100 µM | – | > 100 µM | > 100 µM | > 100 µM | > 100 µM | > 100 µM | > 100 µM | – | – | – | –
5 | CCOC(=O)NC(=O)c1cn(CCNCCO)c(=O)[nH]c1=O | > 100 µM | – | – | – | – | – | – | > 100 µM | – | > 100 µM | – | > 100 µM | – | > 100 µM | – | – | > 100 µM | > 100 µM | – | –
6 | CN1CCN(c2ccc3[nH]c(-c4cc(O)c5c(nc(CO)n5C)c4O)nc3n2)CC1 | 44.2 µM | > 100 µM | > 100 µM | – | – | > 100 µM | > 100 µM | > 100 µM | > 100 µM | > 100 µM | > 100 µM | 36.8 µM | – | > 100 µM | > 100 µM | > 100 µM | – | – | – | –
7 | O=C(N/N=C/C=C/c1ccccc1)[C@H](O)[C@@H](O)C(=O)N/N=C/C=C/c1ccccc1 | > 100 µM | – | – | – | > 100 µM | – | – | > 100 µM | > 100 µM | – | – | > 100 µM | > 100 µM | > 100 µM | – | – | > 100 µM | > 100 µM | – | –
8 | [Cl-].[Rh+3].c1cnc2c(c1)ccc1cccnc12.c1cnc2c(c1)ccc1cccnc12.c1cnc2c(c1)ccc1cccnc12 | > 100 µM | – | – | – | – | – | – | > 100 µM | – | > 100 µM | – | > 100 µM | – | > 100 µM | – | > 100 µM | > 100 µM | > 100 µM | > 100 µM | > 100 µM
